Laboratory results taken from patent US7566459B2, “Modified mycobacterium tuberculosis strains and uses thereof” (priority 2005, dated 2009).
No end group written: not given here. *: point of attachment. Palmitoyl = CCCCCCCCCCCCCCCC(=O)*

Key:
[1] = biological target: T1, human TLR2 (Homo sapiens, UniProt O60603); assay type: cell-based
T1 construct: using an HEK293 cell line stably transfected with cDNA encoding human TLR2

[2] = test system: RAW264.7 cells; assay type: cell-based, murine
[3] = test system: RAW264.7 cells; assay type: cell-based, murine; remark: listed apart in the source
[4] = test system: bone marrow derived macrophages (BMDM); assay type: cell-based, mice
[5] = test system: BMDM; assay: cells; assay type: cell-based, mice; details: Mus musculus, read-out: inhibition of TNFα production (as a measure of protein synthesis)

T1 sequence (O60603 21-784): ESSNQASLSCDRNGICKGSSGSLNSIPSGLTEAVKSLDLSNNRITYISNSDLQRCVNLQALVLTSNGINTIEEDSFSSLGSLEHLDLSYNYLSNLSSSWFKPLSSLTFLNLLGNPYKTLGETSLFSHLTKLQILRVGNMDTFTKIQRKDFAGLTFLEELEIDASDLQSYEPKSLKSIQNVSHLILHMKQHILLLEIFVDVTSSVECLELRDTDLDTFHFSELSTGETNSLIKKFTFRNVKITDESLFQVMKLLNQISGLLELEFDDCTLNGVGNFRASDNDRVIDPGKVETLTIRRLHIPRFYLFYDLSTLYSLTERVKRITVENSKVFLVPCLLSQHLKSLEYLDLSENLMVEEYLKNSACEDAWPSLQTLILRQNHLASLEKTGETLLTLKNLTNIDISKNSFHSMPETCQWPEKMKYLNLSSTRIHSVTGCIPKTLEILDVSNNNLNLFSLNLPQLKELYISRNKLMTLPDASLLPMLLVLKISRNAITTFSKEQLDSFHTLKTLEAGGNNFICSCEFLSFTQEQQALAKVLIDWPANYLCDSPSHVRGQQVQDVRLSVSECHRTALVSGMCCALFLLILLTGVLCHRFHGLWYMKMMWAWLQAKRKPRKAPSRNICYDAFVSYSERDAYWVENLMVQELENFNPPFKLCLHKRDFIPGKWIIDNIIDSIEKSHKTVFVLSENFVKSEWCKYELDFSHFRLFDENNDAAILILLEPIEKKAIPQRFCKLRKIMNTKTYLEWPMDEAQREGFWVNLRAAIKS

macrophage-activating lipopeptide-2
activation of 293-TLR2 cells / secretion of IL-8 (in words) [1]: significant amounts of IL-8

(S)-[2,3-Bis(palmitoyloxy)-(2-RS)-propyl]-(R)-Cys-(S)-Ser-(S)-Lys4×3 CF3COOH (CSKKKK; not fully specified (residue 1); also: 3 CF3COOH salt) [Pam2CSK4, diacylated analog of Pam3CSK4]
activation of 293-TLR2 cells / secretion of IL-8 (in words) [1]: significant amounts of IL-8

(S)-[2,3-Bis(palmitoyloxy)-(2-RS)-propyl]-N-palmitoyl-(R)-Cys-(S)-Ser-(S)-Lys4-OH, 3HCl (Palmitoyl-CSKKKK-OH; not fully specified (residue 1); also: 3 HCl salt) [Pam3CSK4, synthetic triacylated hexapeptide, TLR2/TLR1 agonist]
inhibition of IFNγ induction of surface MHC class II [2]: greater than 90%
IFNγ induction of class II transactivator (CIITA) mRNA [3]: potently inhibited

C[C@@H]1C[C@@H]([C@H](O)CC2CC(=O)NC(=O)C2)C(=O)[C@@H](C)C1 [cycloheximide]
effect on ability of wild-type or ΔlspA Mycobacterium tuberculosis to inhibit IFNγ induction of CIITA gene expression [4]: prevented
inhibition at 0.5 µM [5]: ~90%
